# Values quoted from earlier work as cited in article PMC5758054 (Journal of natural products, 2017).
# Tested on: murine colorectal cancer lung metasteses
# Conditions: ref [36],[37]
structure (smiles),measurement,value
N#C[C@@H]1CCCN1C(=O)CNC12CC3CC(CC(O)(C3)C1)C2 [Vildagliptin],in vivo tumor suppressor activity (in words),has in vivo tumor suppressor activity
